Results on 6 compounds are retold here after PMC8348019.

Molecules are shown by their SMILES.

A short description of this data set: head-to-tail lactamisation of linear tetramer (amino acid/peptoid hybrids) with HATU (1.5 equiv), DIPEA (8 equiv); dropwise addition of linear precursor to HATU solution. The following applies: the molecule shown is the open-chain precursor; 12-membered ring; DMF; 5.0 mM; 21.0 °C; 30.0 h; 10 steps.

Consider `C=CCN(CC(=O)N[C@@H](Cc1ccccc1)C(=O)O)C(=O)[C@H]1CCCN1C(=O)CNC1CCCCC1` [H-(N-cyclohexyl)Gly-D-Pro-(N-allyl)Gly-Phe-OH], for which the ring closure, overall yield came out at 50%. The value for `CCCC[C@H](NC(=O)[C@H]1CCCN1C(=O)[C@@H](N)[C@@H](C)CC)C(=O)N[C@@H](Cc1c[nH]c2ccccc12)C(=O)O` [H-Ile-D-Pro-Nle-Trp-OH] was 22%; that for `CC[C@H](C)[C@H](N)C(=O)N1CCC[C@@H]1C(=O)N[C@@H](COC(C)(C)C)C(=O)N[C@@H](Cc1ccccc1)C(=O)O` [H-Ile-D-Pro-Ser(tBu)-Phe-OH] was 46%; that for `CCCC[C@H](NC(=O)[C@H]1CCCN1C(=O)[C@@H](N)CC(C)C)C(=O)N[C@@H](Cc1ccccc1)C(=O)O` [H-Leu-D-Pro-Nle-Phe-OH] was 56%.

Turning to `CCCC[C@H](NC(=O)[C@H]1CCCN1C(=O)[C@@H](N)CC(C)C)C(=O)N[C@@H](Cc1c[nH]c2ccccc12)C(=O)O` [H-Leu-D-Pro-Nle-Trp-OH], the ring closure, overall yield amounted to 36%. As for `CCCC[C@H](NC(=O)[C@H]1CCCN1C(=O)[C@@H](N)Cc1ccccc1)C(=O)N[C@@H](Cc1c[nH]c2ccccc12)C(=O)O` [H-Phe-D-Pro-Nle-Trp-OH], the ring closure, overall yield came to 38%.
